# Source: ChEMBL document CHEMBL5244279, “Perspectives on SARS-CoV-2 Main Protease Inhibitors” (J Med Chem, 2021)
# What was measured:
# [1] = target: T1, Replicase polyprotein 1ab (Severe acute respiratory syndrome coronavirus 2, UniProt P0DTD1); assay: Inhibition of SARS CoV-2 Main protease using MCA-AVLQSGFR-Lys(DNP)-Lys-NH2 peptide as substrate by fluorescence based analysis
# [2] = Inhibition of SARS CoV N-terminal his-tagged Main protease using Dabcyl-KTSAVLQSGFRKME-Edan peptide as substrate by fluorescence based analysis; design: species or system Severe acute respiratory syndrome-related coronavirus
# [3] = Binding affinity to SARS CoV N-terminal his-tagged Main protease using Dabcyl-KTSAVLQSGFRKME-Edan peptide as substrate by fluorescence based analysis; design: species or system Severe acute respiratory syndrome-related coronavirus
# SARS-CoV-2 [4] = type: functional, organism-based, Vero E6; details: Severe acute respiratory syndrome coronavirus 2, Vero C1008
# [5] = Cytotoxicity against human Huh-7 cells assessed as reduction of cell viability; type: toxicity, cell-based
# [6] = Cytotoxicity against cat CRFK cells assessed as reduction of cell viability; type: toxicity, cell-based, Felis catus
# [7] = Cytotoxicity against mouse L929 cells assessed as reduction of cell viability; type: toxicity, cell-based
# SARS-CoV-2 [8] = type: functional, organism-based, Vero E6; details: Severe acute respiratory syndrome coronavirus 2, strain 107, Vero C1008
# [9] = target: T1, Replicase polyprotein 1ab; assay: Inhibition of SARS CoV-2 Main protease incubated for 10 min by FRET assay
structure (smiles),measurement,setting,value
Cc1ccc(-n2sc3ccccc3c2=O)cc1,IC50,[1],0.33 µM
O=C(NCc1ccco1)c1ccc(-n2sc3ccccc3c2=O)cc1,IC50,[1],0.38 µM
CCCNC(=O)c1ccc(-n2sc3ccccc3c2=O)cc1,IC50,[1],0.23 µM
Cn1sc2ccccc2c1=O,IC50,[1],0.78 µM
O=C(Oc1ccc(S(=O)(=O)c2ccc(OC(=O)C(Cl)=C(Cl)Cl)cc2)cc1)C(Cl)=C(Cl)Cl,IC50,[2],0.9 µM
CCN(CC)c1ccc(C(=O)On2nnc3ccccc32)cc1,Ki,[3],0.0111 µM
C=CCn1sc2ccccc2c1=O,IC50,[1],0.63 µM
O=c1[nH]sc2ccccc12,IC50,[1],0.66 µM
CC(C)Cn1sc2ccccc2c1=O,IC50,[1],0.48 µM
O=C(O)c1ccc(-n2[se]c3ccccc3c2=O)cc1,IC50,[1],0.13 µM
COC(=O)c1ccc(-n2sc3ccccc3c2=O)cc1,IC50,[1],0.36 µM
O=C(O)Cn1[se]c2ccccc2c1=O,IC50,[1],0.41 µM
Nc1ccccc1-n1sc2ccccc2c1=O,IC50,[1],0.13 µM
CC(C)[C@H](NC(=O)[C@H](C)NC(=O)OCc1ccccc1)C(=O)N[C@@H](Cc1ccccc1)[C@@H](O)[C@H](O)[C@H](Cc1ccccc1)NC(=O)[C@@H](NC(=O)[C@H](C)NC(=O)OCc1ccccc1)C(C)C,Ki,[2],0.6 µM
O=c1c2ccccc2sn1CCO,IC50,[1],0.41 µM
O=c1c2ccccc2sn1-c1ccccc1,IC50,[1],0.49 µM
O=C(O)CCn1[se]c2ccccc2c1=O,IC50,[1],0.35 µM
O=C(On1nnc2ccccc21)c1cc2ccccc2[nH]1,Ki,[3],0.0123 µM
O=C[C@H](C[C@@H]1CCNC1=O)NC(=O)[C@H](Cc1ccccc1)NC(=O)/C=C/c1ccc(Cl)cc1F,IC50,SARS-CoV-2 [4],0.2 µM
O=c1c2ccccc2[se]n1CCN1CCOCC1,IC50,[1],0.24 µM
O=c1c2ccccc2[se]n1CCO,IC50,[1],0.65 µM
CC(C)C[C@H](NC(=O)OCc1ccccc1)C(=O)N[C@H](C=O)C[C@@H]1CCNC1=O,IC50,SARS-CoV-2 [4],0.07 µM
same,CC50,[6],> 100 µM
same,CC50,[7],> 100 µM
CC(C)C[C@H](NC(=O)OCC1CCC(F)(F)CC1)C(=O)N[C@H](C=O)C[C@@H]1CCNC1=O,CC50,[5],> 100 µM
same,CC50,[6],> 100 µM
same,CC50,[7],> 100 µM
CN(C)c1ccc(/C=C/C(=O)N[C@@H](Cc2ccccc2)C(=O)N[C@H](C=O)C[C@@H]2CCNC2=O)cc1,IC50,SARS-CoV-2 [4],0.5 µM
O=c1c2ccccc2sn1Cc1ccco1,IC50,[1],0.11 µM
same,Ki,[1],0.078 µM
CC(C)C[C@H](NC(=O)/C=C/c1ccccc1)C(=O)N[C@H](C=O)C[C@@H]1CCNC1=O,IC50,SARS-CoV-2 [4],0.83 µM
Nc1ccccc1C(=O)On1nnc2ccccc21,Ki,[3],0.0195 µM
O=C[C@H](C[C@@H]1CCNC1=O)NC(=O)[C@@H]1[C@H]2CCC[C@H]2CN1C(=O)CCc1cc(F)cc(F)c1,EC50,SARS-CoV-2 [8],5.63 µM
O=C[C@H](C[C@@H]1CCNC1=O)NC(=O)[C@@H]1[C@H]2CCC[C@H]2CN1C(=O)COc1ccc(Cl)c(Cl)c1,IC50,[9],0.03 µM
same,EC50,SARS-CoV-2 [8],0.83 µM
CC(C)C[C@H](NC(=O)OC1CCCCC1)C(=O)N[C@H](C=O)C[C@@H]1CCNC1=O,IC50,SARS-CoV-2 [4],3.9 µM
same,CC50,[5],> 100 µM
same,CC50,[6],> 100 µM
same,CC50,[7],> 100 µM
COc1ccc(OCC(=O)N2C[C@H]3[C@@H]([C@H]2C(=O)N[C@H](C=O)C[C@@H]2CCNC2=O)C3(C)C)cc1OC,IC50,[9],0.0145 µM
same,EC50,SARS-CoV-2 [8],1.73 µM
CC1(C)[C@@H]2[C@@H](C(=O)N[C@H](C=O)C[C@@H]3CCNC3=O)N(C(=O)COc3ccc(F)c(F)c3)C[C@@H]21,IC50,[9],0.0132 µM
same,EC50,SARS-CoV-2 [8],5.57 µM
CNc1ccc(C(=O)On2nnc3ccccc32)cc1,Ki,[3],0.0121 µM
CC(C)(C)OC(=O)NCn1[se]c2ccccc2c1=O,IC50,[1],0.33 µM
O=C(On1nnc2ccccc21)c1ccc2[nH]cnc2c1,Ki,[3],0.0229 µM
CC1(C)[C@@H]2[C@@H](C(=O)N[C@H](C=O)C[C@@H]3CCNC3=O)N(C(=O)COc3cc(F)cc(F)c3)C[C@@H]21,IC50,[9],0.0185 µM
same,EC50,SARS-CoV-2 [8],1.64 µM
O=C[C@H](C[C@@H]1CCNC1=O)NC(=O)[C@@H]1[C@H]2CCC[C@H]2CN1C(=O)c1cccnc1,IC50,[9],0.748 µM
CCCCNC(=O)c1ccc(-n2sc3ccccc3c2=O)cc1,IC50,[1],0.91 µM
COc1ccc(OC(C)C(=O)N2C[C@@H]3CCC[C@@H]3[C@H]2C(=O)N[C@H](C=O)C[C@@H]2CCNC2=O)cc1 (some centres not stated),IC50,[9],0.0691 µM
CN(C)c1ccc(CCC(=O)N2C[C@@H]3CCC[C@@H]3[C@H]2C(=O)N[C@H](C=O)C[C@@H]2CCNC2=O)cc1,IC50,[9],0.378 µM
O=C[C@H](C[C@@H]1CCNC1=O)NC(=O)[C@@H]1[C@H]2CCC[C@H]2CN1C(=O)COc1ccc(Cl)cc1,EC50,SARS-CoV-2 [8],0.67 µM
CC1(C)[C@@H]2[C@@H](C(=O)N[C@H](C=O)C[C@@H]3CCNC3=O)N(C(=O)CCc3cccc(F)c3)C[C@@H]21,IC50,[9],0.0165 µM
same,EC50,SARS-CoV-2 [8],2.23 µM
O=C[C@H](C[C@@H]1CCNC1=O)NC(=O)[C@@H]1[C@H]2CCC[C@H]2CN1C(=O)CCc1cccc(F)c1,EC50,SARS-CoV-2 [8],2.97 µM
CC1(C)[C@@H]2[C@@H](C(=O)N[C@H](C=O)C[C@@H]3CCNC3=O)N(C(=O)COc3ccc(Cl)cc3)C[C@@H]21,IC50,[9],0.019 µM
same,EC50,SARS-CoV-2 [8],0.53 µM
CC(C)[C@H](NC(=O)[C@H](C)NC(=O)OCc1ccccc1)C(=O)N[C@@H](Cc1c[nH]c2ccccc12)[C@@H](O)[C@H](O)[C@@H](Cc1c[nH]c2ccccc12)NC(=O)[C@@H](NC(=O)[C@H](C)NC(=O)OCc1ccccc1)C(C)C,Ki,[2],0.073 µM
CCCC1CCC(OC(=O)N[C@@H](CC(C)C)C(=O)N[C@H](C=O)C[C@@H]2CCNC2=O)CC1 (some centres not stated),CC50,[5],> 100 µM
same,CC50,[6],> 100 µM
same,CC50,[7],> 100 µM
O=c1c2ccccc2sn1CCCCc1ccccc1,IC50,[1],0.41 µM
O=C[C@H](C[C@@H]1CCNC1=O)NC(=O)[C@@H]1[C@H]2CCC[C@H]2CN1C(=O)CCc1ccc(F)c(F)c1,IC50,[9],0.0174 µM
same,EC50,SARS-CoV-2 [8],30.5 µM
O=C[C@H](C[C@@H]1CCNC1=O)NC(=O)[C@@H]1[C@H]2CCC[C@H]2CN1C(=O)c1cc2ccccc2[nH]1,IC50,[9],0.153 µM
COc1ccc(OCC(=O)N2C[C@@H]3CCC[C@@H]3[C@H]2C(=O)N[C@H](C=O)C[C@@H]2CCNC2=O)cc1,IC50,[9],0.0362 µM
same,EC50,SARS-CoV-2 [8],24.7 µM
CCCn1sc2ccccc2c1=O,IC50,[1],0.73 µM
O=C[C@H](C[C@@H]1CCNC1=O)NC(=O)[C@H](Cc1ccccc1)NC(=O)/C=C/c1cccc(Br)c1,IC50,SARS-CoV-2 [4],0.7 µM
COc1ccc(/C=C/C(=O)N2C[C@@H]3CCC[C@@H]3[C@H]2C(=O)N[C@H](C=O)C[C@@H]2CCNC2=O)c(OC)c1,IC50,[9],0.196 µM
O=C[C@H](C[C@@H]1CCNC1=O)NC(=O)[C@@H]1[C@H]2CCC[C@H]2CN1C(=O)COc1ccc2c(c1)OCCO2,IC50,[9],0.0935 µM
CC1(C)[C@@H]2[C@@H](C(=O)N[C@H](C=O)C[C@@H]3CCNC3=O)N(C(=O)COc3ccc(Br)cc3Cl)C[C@@H]21,IC50,[9],0.0133 µM
same,EC50,SARS-CoV-2 [8],1.18 µM
O=c1c2ccccc2[se]n1-c1cccc([N+](=O)[O-])c1,IC50,[1],0.15 µM
CN(C)c1ccc(C(=O)On2nnc3ccccc32)cc1,Ki,[3],0.0174 µM
CC1(C)[C@@H]2[C@@H](C(=O)N[C@H](C=O)C[C@@H]3CCNC3=O)N(C(=O)c3ccc4ccccc4c3)C[C@@H]21,IC50,[9],0.453 µM
CN(C)c1ccc(/C=C/C(=O)N2C[C@@H]3CCC[C@@H]3[C@H]2C(=O)N[C@H](C=O)C[C@@H]2CCNC2=O)cc1,IC50,[9],0.375 µM
CCCCC1CCC(OC(=O)N[C@@H](CC(C)C)C(=O)N[C@H](C=O)C[C@@H]2CCNC2=O)CC1 (some centres not stated),IC50,SARS-CoV-2 [4],0.9 µM
same,CC50,[5],63.3 µM
same,CC50,[6],63.3 µM
same,CC50,[7],63.3 µM
CC1(C)[C@@H]2[C@@H](C(=O)N[C@H](C=O)C[C@@H]3CCNC3=O)N(C(=O)COc3cccc(C(F)(F)F)c3)C[C@@H]21,IC50,[9],0.0433 µM
same,EC50,SARS-CoV-2 [8],16.9 µM
COc1ccc(OCC(=O)N2C[C@H]3[C@@H]([C@H]2C(=O)N[C@H](C=O)C[C@@H]2CCNC2=O)C3(C)C)cc1F,IC50,[9],0.0372 µM
same,EC50,SARS-CoV-2 [8],4.68 µM
O=C[C@H](C[C@@H]1CCNC1=O)NC(=O)[C@@H]1[C@H]2CCC[C@H]2CN1C(=O)/C=C/c1ccccc1,IC50,[9],0.526 µM
CC1(C)[C@@H]2[C@@H](C(=O)N[C@H](C=O)C[C@@H]3CCNC3=O)N(C(=O)COc3ccc(Cl)c(Cl)c3)C[C@@H]21,IC50,[9],0.0124 µM
same,EC50,SARS-CoV-2 [8],2.08 µM
CC1(C)[C@@H]2[C@@H](C(=O)N[C@H](C=O)C[C@@H]3CCNC3=O)N(C(=O)COc3ccc4ccccc4c3)C[C@@H]21,IC50,[9],0.0521 µM
CC1(C)[C@@H]2[C@@H](C(=O)N[C@H](C=O)C[C@@H]3CCNC3=O)N(C(=O)COc3ccc(Br)c(Cl)c3)C[C@@H]21,IC50,[9],0.0508 µM
Cc1cc(Cl)ccc1OCC(=O)N1C[C@@H]2CCC[C@@H]2[C@H]1C(=O)N[C@H](C=O)C[C@@H]1CCNC1=O,IC50,[9],0.0197 µM
same,EC50,SARS-CoV-2 [8],1.5 µM
O=C(On1nnc2ccccc21)c1cc2cc(F)ccc2[nH]1,Ki,[3],0.0138 µM
CCCC1CCC(OC(=O)N[C@@H](CC(C)C)C(=O)N[C@@H](C[C@@H]2CCNC2=O)C(O)S(=O)(=O)O)CC1 (some centres not stated),CC50,[5],> 100 µM
same,CC50,[6],> 100 µM
same,CC50,[7],> 100 µM
CC1(C)[C@@H]2[C@@H](C(=O)N[C@H](C=O)C[C@@H]3CCNC3=O)N(C(=O)COc3ccc(Cl)cc3Cl)C[C@@H]21,IC50,[9],0.013 µM
same,EC50,SARS-CoV-2 [8],0.66 µM
O=C[C@H](C[C@@H]1CCNC1=O)NC(=O)[C@@H]1[C@H]2CCC[C@H]2CN1C(=O)c1cc2ccccn2n1,IC50,[9],0.299 µM
O=C[C@H](C[C@@H]1CCNC1=O)NC(=O)[C@@H]1[C@H]2CCC[C@H]2CN1C(=O)COc1ccc(Cl)cc1F,IC50,[9],0.0347 µM
same,EC50,SARS-CoV-2 [8],1.65 µM
Cc1cc(-c2ccc(N/N=C3\C=Cc4c(S(=O)(=O)O)cc(S(=O)(=O)O)c(N)c4C3=O)c(C)c2)ccc1N/N=C1\C=Cc2c(S(=O)(=O)O)cc(S(=O)(=O)O)c(N)c2C1=O,IC50,[2],0.2 µM
same,Ki,[2],0.073 µM
O=c1c2ccccc2sn1-c1ccc(Cl)cc1,IC50,[1],0.39 µM
O=c1c2ccccc2sn1Cc1ccccc1,IC50,[1],0.17 µM
